In patent US20220267271A1, “WNT ACTIVATORS AND METHODS OF USE” (MAYO FOUNDATION FOR MEDICAL EDUCATION AND RESEARCH, priority 2019, published 2022):

Columns and labels:
[1] = tested on: E. coli: wp2[pKM101]+wp2 uvrA; experiment: Ames test, bacterial reverse mutation assay, E. coli; parameters: species or system Escherichia coli; details: 1011 and 1015 at 400 μM, mean ± SD, n = 3
Protocol: (§1) Ames test: According to the OECD Guidelines For Testing Of Chemicals, experiments with the tested agents, positive and negative controls, were conducted in triplicates on 6 tester strains, S. typhimurium: TA98, TA100, TA1535, TA1537 and E. coli: wp2[pKM101]+wp2 uvrA mixed 1:2. Dimethyl sulfoxide (DMSO) was used as the vehicle control for all tester strains in mutagenicity assay with and without metabolic activation. Compounds with known mutagenic activity were used as the positive controls in mutagenicity assay without metabolic activation: 2-nitrofluorene (0.1 μg/plate) for TA98, 4-nitroquinoline N-oxide (0.1 μg/plate) for TA100, sodium azide (0.2 μg/plate) for TA1535, 9-aminoacridine (7.5 μg/plate) for TA1537, and 4-nitroquinoline N-oxide (0.1 μg/plate) for E. coli. 2-Aminoantracene in final concentration 0.4 μg/ml was used as the positive control (the solution of 2-aminoantracene in DMSO was prepared immediately before experiment) in test with metabolic activation. For each experiment tester strain cultures were grown overnight in Oxoid nutrient broth #2 at 37° C. with shaking at 235 rpm to a density of 1-2×10^9 colony forming units/ml (OD600˜1.5). The S9 mix, which is consist of 9000 g supernatant fraction of rat liver homogenate (S9 fraction), was prepared immediately prior to its use in experimental procedure.
(§2) The tester strain (10 μl of overnight culture) was mixed with the test agent (10 μl of the DMSO stock) and GM liquid medium (30 μl) or S9 mix (30 μl). Then, 200 μl of molten top agar supplemented with histidine/biotin (final concentration 0.05 mM) for S. typhimurium and tryptophan (final concentration 0.025 mM) for E. coli were added to the tube (top agar was kept at 44° C. to prevent hardening). The mixed suspension was poured onto the surface of a GM agar plate (2.0 ml of GM agar per plate). After the top agar solidified, the plates were inverted and incubated at 37° C. for 48 hours. The results were expressed as number of revertant colonies per plate. The final concentrations of the test compounds in the mutagenicity assay with all tester strains in both the presence and absence of S9 mix were 400 μM. All concentrations were tested in triplicates.

[2] = tested on: hCMEC/D3 cells; experiment: Cell viability assay (CellTiter-Glo) in hCMEC/D3 cells; type: cell-based, human; details: hCMEC/D3 cells, 0.3, 1, 3, 10 and 30 μM, 24 h
Protocol: The human brain endothelial capillary hCMEC/D3 cells were cultured with compounds at the indicated concentrations for 24 h. Cell viability was assessed by the Cell TitreGlo Assay system from Promega. Data represent mean±SD from three independent experiments. *P<0.05.
Cell viability assay: Human blood-brain barrier hCMEC/D3 cells were seeded into 96-well tissue culture treated microtiter plates at a density of 20,000 cells/well. After 24 h incubation, the cells were treated with the test compounds at the indicated concentrations for 24 h. Cell viability was measured by the CellTiter-Glo Assay (Promega), which is a luminescent assay that is an indicator of live cells as a function of metabolic activity and ATP content.

[3] = tested on: S. typhimurium TA1537; experiment: Ames test, bacterial reverse mutation assay, TA1537; parameters: species or system Salmonella typhimuium; details: 1011 and 1015 at 400 μM, mean ± SD, n = 3
Protocol: as §1, §2

[4] = tested on: S. typhimurium TA1535; experiment: Ames test, bacterial reverse mutation assay, TA1535; parameters: species or system Salmonella typhimuium; details: 1011 and 1015 at 400 μM, mean ± SD, n = 3
Protocol: as §1, §2

[5] = tested on: PS19 mice; experiment: Efficacy study in PS19 mice (tauopathy model); type: in vivo; details: IP 15 mg/kg once daily, 8 weeks
Protocol: PS19 mice at 33 weeks of age were treated with 1015 (IP, 15 mg/kg) or vehicle [Kolliphor HS-physiological saline (20%:80%)] by a once daily dose schedule for 8 weeks (5 injections per week). (A) Body weight changes during the course of treatment were assessed. (B) The level of Wnt specific target neuroD1 in cortex was determined by qPCR. All the values are the average of from 5-7 mice with the SE values indicated by error bars.* P<0.05, * P<0.01 verse Non-Tg treated with vehicle or PS19 mice treated with vehicle.
(A) PS19 mice at 33 weeks of age were treated with 1015 (IP, 15 mg/kg) or vehicle [Kolliphor HS-physiological saline (20%:80%)] by a once daily dose schedule for 8 weeks (5 injections per week). The levels of tau phosphorylation (p-tau) and total tau in cortex were determined by Western blotting with p-tau antibody AT8, p-tau antibody AT180, and tau antibody HT7, respectively. (B) The intensities of p-tau bands were quantified and normalized to the corresponding signal for actin. The results represented in the histograms are shown as the mean±SE, n=5.
PS19 mice at 33 weeks of age were treated with 1015 (IP, 15 mg/kg) or vehicle [Kolliphor HS-physiological saline (20%:80%)] by a once daily dose schedule for 8 weeks (5 injections per week). (A-D) The levels of cytokines IL6, TNFa, TGF1b and IL1b in cortex were determined by qPCR. All the values are the average of from 5-7 mice with the SE values indicated by error bars. * P<0.05, * P<0.01, ** P<0.001.
1015 activates Wnt/β-catenin signaling and prevents body weight loss in PS19 mice: PS19 is a widely used tauopathy model which recapitulates many AD-related phenotypes. […] Therefore, the PS19 mouse model was used for efficacy studies. There was a noticeable drop in weight in all groups after initiation of daily dosing in each group, which is most likely a consequence of the sudden daily manipulation of the mice (FIG. 17 at A).

[6] = tested on: E. coli strain TOP10-pTac-lux-CDABE; experiment: Bacterial cytotoxicity evaluation (luminescence); details: 6.25-400 μM, 4 h
Protocol: In addition, bacterial cytotoxicity evaluation was performed using E. coli strain TOP10-pTac-lux-CDABE, expressing both luciferase (a heterodimer of LuxA and LuxB subunits) and the enzymes required for the production of luciferase substrate (LuxC, LuxD and LuxE). For the experiment, bacterial culture was grown overnight in LB medium at 37° C. with shaking at 250 rpm. The overnight culture was diluted 1:666 into fresh LB medium supplemented with 50 μg/ml kanamycin and incubated at 37° C. and 250 rpm to OD600 0.4-0.5. Serial dilutions of the test compounds in DMSO were prepared (40 mM, 20 mM, 10 mM, 5 mM, 2.5 mM, 1.25 mM, 0.625 mM) and 4 μl aliquots of each solution were transferred into 96-well plate and mixed with 96 μl of 0.9% NaCl. Then, 10 μl of the dilutions were dispensed into the appropriate wells of 384-well white screening microplate. 30 μl aliquots of freshly grown bacterial culture at OD600 of 0.4-0.5 were added to each well with compounds' dilutions (Final concentration of the test compounds were 400 μM, 200 μM, 100 μM, 50 μM, 25 μM, 12.5 μM, 6.25 μM). The plate was incubated for 4 h at 37° C. and the luminescence.

[7] = with metabolic activation (S9 mix)

Row | Structure (SMILES) | Number of revertant colonies per plate, E. coli [1, 7] | Number of revertant colonies per plate, E. coli ([1]; without metabolic activation) | cytotoxicity (cell viability) [2] | Number of revertant colonies per plate, TA1537 [3, 7] | Number of revertant colonies per plate, TA1537 ([3]; without metabolic activation) | Number of revertant colonies per plate, TA1535 [4, 7] | Number of revertant colonies per plate, TA1535 ([4]; without metabolic activation) | body weight loss ([5]; 5 injections per week) | tau phosphorylation in cortex ([5]; AT8 and AT180) | neuroD1 expression in brain ([5]; cortex, qPCR) | neuroinflammatory cytokine expression (IL6, TNFa, TGF1b, IL1b) ([5]; cortex, qPCR) | cytotoxicity for bacterial cells [6]
1 | Nc1ccccc1NC(=O)c1ccc(C(=O)NCC2CCN2C2CCCC2)cn1 (centres unmarked) [Compound 1015] | 9.0 ± 2.7 revertant colonies per plate | 5.3 ± 4.7 revertant colonies per plate | not toxic at or below the 10 μM concentration | 0.0 ± 0.0 revertant colonies per plate | 0.0 ± 0.0 revertant colonies per plate | 0.7 ± 1.2 revertant colonies per plate | 0.3 ± 0.6 revertant colonies per plate | significantly prevented | significantly suppresses | restored, but not over induced | inhibited | no cytotoxicity
2 | CC1CCCC(C)N1CCNC(=O)c1ccc(C(=O)Nc2ccccc2N)nc1 (centres unmarked) [Compound 1011] | 9.7 ± 3.2 revertant colonies per plate | 8.7 ± 2.1 revertant colonies per plate | not toxic at all the tested concentrations | 0.0 ± 0.0 revertant colonies per plate | 0.7 ± 0.6 revertant colonies per plate | 0.7 ± 0.6 revertant colonies per plate | 1.7 ± 2.1 revertant colonies per plate | – | – | – | – | no cytotoxicity
